Source: patent publication US8710233B2 (Gruenenthal GmbH, priority 2005, dated 2014)

What was measured:
[1] = system: cold allodynia after chronic constriction injury; test: Neuropathic pain in mice, Bennet model (chronic constriction injury, cold allodynia); type: in vivo; conditions: mouse
From the text: VI. Neuropathic Pain in Mice
The efficacy of compounds of general formula I in the treatment of neuropathic pain is investigated by using the Bennet modell (chronic constriction injury; Bennett and Xie, 1988, Pain 33: 87-107.
NMRI mice (weight 16 to 18 g) under ketavet-rompun anaesthesia are supplied with three loose ligatures of the right nervus ischiaticus. The animals develop an oversensitivity to cold at the position of the pad that is innervated by the injured nerve which—after a recovery period of one week—is quantified over a period of three weeks by using a metal plate that is cooled to 4° C. (cold allodynia). The animals are observed for a period of 2 minutes on this plate and the number of brisk withdrawal reactions of the injured nerve is counted. […] The group size is n=10, the stastical significance of efficacy against allodynia (*=p<0.05) is determined by analysis of variance with repeated measurements and post hoc analysis with Bonferroni adjustment.

[2] = system: formaldehyde induced nociceptive behaviour; test: Formaldehyde test in mice, second (late) phase; type: in vivo, mouse; conditions: mouse, read-out: inhibition formaldehyde test (n = 10)
[3] = biological target: T1, vanilloid receptor (VR1) (Homo sapiens, UniProt Q8NER1); test: FLIPR Ca2+ influx assay on CHO K1 cells transfected with the VR1 gene (pharmacological method II); type: cell-based; conditions: table 4; capsaicin; read-out: Ki (human) Cap.
T1 construct: expressed in transfected cells; host or cells: CHO K1 cells (ECACC), stably transfected
T1 sequence (Q8NER1 whole entry): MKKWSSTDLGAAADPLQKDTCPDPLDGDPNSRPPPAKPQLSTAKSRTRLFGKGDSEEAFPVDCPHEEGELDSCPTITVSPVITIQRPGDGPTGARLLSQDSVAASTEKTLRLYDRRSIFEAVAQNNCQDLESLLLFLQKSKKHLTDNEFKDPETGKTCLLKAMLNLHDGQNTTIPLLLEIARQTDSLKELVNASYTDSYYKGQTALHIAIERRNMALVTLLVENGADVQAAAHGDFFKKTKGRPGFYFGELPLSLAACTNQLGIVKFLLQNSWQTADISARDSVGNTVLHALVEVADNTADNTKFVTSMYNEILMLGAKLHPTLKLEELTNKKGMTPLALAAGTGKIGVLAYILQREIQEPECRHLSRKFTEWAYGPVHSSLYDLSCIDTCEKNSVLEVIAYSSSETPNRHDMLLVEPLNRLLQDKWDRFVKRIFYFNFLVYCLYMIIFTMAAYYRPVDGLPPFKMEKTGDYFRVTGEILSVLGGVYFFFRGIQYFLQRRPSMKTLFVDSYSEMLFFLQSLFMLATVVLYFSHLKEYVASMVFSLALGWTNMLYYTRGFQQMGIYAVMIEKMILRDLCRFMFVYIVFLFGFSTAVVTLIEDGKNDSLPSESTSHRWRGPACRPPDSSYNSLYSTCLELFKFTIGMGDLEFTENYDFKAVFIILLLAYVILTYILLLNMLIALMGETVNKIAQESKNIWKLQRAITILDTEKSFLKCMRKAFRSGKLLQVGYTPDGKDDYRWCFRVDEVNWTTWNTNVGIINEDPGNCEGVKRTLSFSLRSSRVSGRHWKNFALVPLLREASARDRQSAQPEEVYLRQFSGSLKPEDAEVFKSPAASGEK

Row | Ki [3] [nM] | SMILES | inhibition Bennet model (n = 10) ([1]; 0.001 mg/kg body weight po) [po 26%] | inhibition in vivo at 0.03 mg/kg ([2]; 0.03 mg/kg body weight po) [%] | inhibition Bennet model (n = 10) ([1]; 0.01 mg/kg body weight po) | inhibition in vivo at 0.3 mg/kg ([2]; 0.3 mg/kg body weight po) [%]
1 | 1.5 | CC(C(=O)NCc1ccc(C(C)(C)C)nc1OC1CCCC1)c1ccc(NS(C)(=O)=O)c(F)c1 (centres unmarked) [Example 234, N-(6-tert-butyl-2-cyclopentyloxy-pyridin-3-ylmethyl)-2-(3-fluoro-4-methylsulfonamido-phenyl)-propionamide] | 0.001 | 5 |  | 
2 | 14 | Cc1ccc(Cl)cc1Nc1nc(C(F)(F)F)ccc1CNC(=O)C(C)c1ccc(NS(C)(=O)=O)c(F)c1 (centres unmarked) [Example 136, N-[2-(5-chloro-2-methyl-phenylamino)-6-trifluoromethyl-pyridin-3-ylmethyl]-2-(3-fluoro-4-methylsulfonamido-phenyl)-propionamide] |  |  | 0.01 po 13% | 
3 | 0.9 | CC(C(=O)NCc1ccc(C(F)(F)F)nc1OCCC(C)(C)C)c1ccc(NS(C)(=O)=O)c(F)c1 (centres unmarked) [Example 125] |  |  | 0.01 po 17% | 24
